In ChEMBL document CHEMBL3585319 (J Med Chem, 2015):
Active and inactive are the calls of the source. The rule behind the calls is not given here.

Tests used:
[1] = target: T1, Sodium-dependent serotonin transporter (Homo sapiens, UniProt P31645); assay: (§1) Irreversible photoaffinity labeling of hemagglutinin-tagged human SERT expressed in LLCPK1 cells at 10 nM incubated for 1.5 hrs at 4 degC followed by irradiation with shortwave ultraviolet light for 5 mins by SDS-PAGE and autoradiography method; type: cell-based; details: LLC-PK1, tested as the 125I-labelled form
Target sequence in this assay (P31645 whole entry, looked up): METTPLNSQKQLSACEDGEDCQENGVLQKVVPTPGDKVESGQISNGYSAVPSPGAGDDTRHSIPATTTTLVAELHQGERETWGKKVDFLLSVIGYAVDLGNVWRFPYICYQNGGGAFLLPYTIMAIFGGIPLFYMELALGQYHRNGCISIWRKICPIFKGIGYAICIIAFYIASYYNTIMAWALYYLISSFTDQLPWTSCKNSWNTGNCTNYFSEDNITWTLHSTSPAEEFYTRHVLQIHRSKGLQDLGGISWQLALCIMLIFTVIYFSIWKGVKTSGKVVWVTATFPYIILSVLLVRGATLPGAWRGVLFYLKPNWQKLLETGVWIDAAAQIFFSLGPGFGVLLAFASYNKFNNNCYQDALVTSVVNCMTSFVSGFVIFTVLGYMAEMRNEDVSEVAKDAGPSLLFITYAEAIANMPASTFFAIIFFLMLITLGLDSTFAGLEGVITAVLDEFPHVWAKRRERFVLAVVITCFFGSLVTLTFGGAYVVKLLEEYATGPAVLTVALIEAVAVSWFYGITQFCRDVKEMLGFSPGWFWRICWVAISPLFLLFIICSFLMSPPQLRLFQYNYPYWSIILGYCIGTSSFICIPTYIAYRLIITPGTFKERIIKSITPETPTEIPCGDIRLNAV

[2] = target: T1, Sodium-dependent serotonin transporter; assay: Inhibition of wild type human SERT expressed in HEK293 GripTite cells pre-incubated for 5 mins followed by [3H]5-HT addition by [3H]5-HT uptake assay; type: cell-based
Target sequence in this assay (P31645 whole entry): as the sequence (P31645 whole entry, looked up) above

[3] = target: Sodium-dependent serotonin transporter (Homo sapiens, UniProt P31645, S438T); type: cell-based, HEK293
Chain of Sodium-dependent serotonin transporter (Homo sapiens, UniProt P31645, S438T) (P31645 whole entry S438T): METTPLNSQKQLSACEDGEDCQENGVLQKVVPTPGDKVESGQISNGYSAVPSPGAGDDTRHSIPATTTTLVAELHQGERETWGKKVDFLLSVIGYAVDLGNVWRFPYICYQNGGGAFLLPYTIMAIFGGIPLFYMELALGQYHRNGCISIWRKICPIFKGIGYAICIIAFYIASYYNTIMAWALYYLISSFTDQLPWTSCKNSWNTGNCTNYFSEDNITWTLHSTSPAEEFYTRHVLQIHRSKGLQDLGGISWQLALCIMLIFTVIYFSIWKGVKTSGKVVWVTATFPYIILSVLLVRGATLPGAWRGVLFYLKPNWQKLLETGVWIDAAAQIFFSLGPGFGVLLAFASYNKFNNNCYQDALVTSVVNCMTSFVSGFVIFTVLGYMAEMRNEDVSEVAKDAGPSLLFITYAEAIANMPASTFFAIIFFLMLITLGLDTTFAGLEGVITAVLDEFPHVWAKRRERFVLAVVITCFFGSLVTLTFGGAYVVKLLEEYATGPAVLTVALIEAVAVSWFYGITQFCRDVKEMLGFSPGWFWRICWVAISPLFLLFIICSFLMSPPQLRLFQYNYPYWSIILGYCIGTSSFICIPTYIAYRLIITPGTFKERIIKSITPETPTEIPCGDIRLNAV

[4] = target: T1, Sodium-dependent serotonin transporter; assay: as §1, with “cells assessed as 10 uM (s)-citalopram-induced blocking of compound binding” for “cells”; type: cell-based; details: LLC-PK1, tested as the 125I-labelled form
Target sequence in this assay (P31645 whole entry, looked up): as the sequence (P31645 whole entry, looked up) above

Homo sapiens = organism: Homo sapiens; assay: Resistance index, ratio of Ki for human SERT S438T mutant expressed in HEK293 GripTite cells to Ki for wild type human SERT expressed in HEK293 GripTite cells; type: cell-based

Row | Structure (SMILES) | Activity [1] | Ki [2] | Ki [3] | inhibition [4] | Ratio Ki (Homo sapiens)
1 | COC(=O)[C@@H]1C2CCC(C[C@@H]1c1ccc(Cl)cc1)N2CCCCc1ccc(N=[N+]=[N-])c(I)c1 (some centres undefined) | Active | – | – | – | –
2 | CN(C)CCC[C@@]1(c2ccc(F)cc2)OCc2cc(CNC(=O)CCc3ccc(N=[N+]=[N-])c(I)c3)ccc21 | Active | 38 nM | 9880 nM | > 99% | –
3 | CN(CCC[C@@]1(c2ccc(F)cc2)OCc2cc(C#N)ccc21)CCc1ccc(N=[N+]=[N-])c(I)c1 | Active | 227 nM | 3810 nM | 30% | 17
4 | CN(C)CCC[C@@]1(c2ccc(F)cc2)OCc2cc(CNC(=O)c3ccc(N=[N+]=[N-])c(I)c3)ccc21 | Active | 24 nM | 5700 nM | > 99% | –
